We go through one molecule from patent publication US20250092345A1, “INTER ORGAN PLATFORM FOR MICROPHYSIOLOGICAL SYSTEM ON A CHIP” (THE TRUSTEES OF COLUMBIA UNIVERSITY IN THE CITY OF NEW YORK, priority 2020, published 2025).

Structures are written as SMILES.

The test system of data set [1] is non-metastatic TE-ES bone tumor tissues. In words: Non-metastatic ES bone tumor in the integrated platform with microfluidic perfusion, linsitinib. Format: cell-based, human. The conditions noted are these: 12 μM. The method, then: (§1) The TE-ES and cardiac tissues were then cultured in the integrated platform with perfusion of mixed media. Linsitinib was introduced into the reservoir and delivered to tissues via circulation of perfusate and diffusion into the tissues.
ES cells, when co-cultured with mesenchymal stem cells and exposed to physiological shear-stress in a perfusion bioreactor, can become resistant to IGF-1R inhibitors. Therefore, we evaluated the role of flow derived shear stress in this newly found resistance of non-metastatic TE-ES bone tumor tissues to the IGF-1R inhibitor linsitinib. Linsitinib was introduced into the platform (12 µM, 3 days), either via circulation or directly into the TE-ES tissue chamber (FIG. 34G), to distinguish effects of flow-derived stimuli from drug diffusion into the tissues.
Upon maturation, bone tumors in the platform were exposed to a 1:1 mixture of the bone tumor and cardiac tissue media, supplemented by 12 μM linsitinib in the treated groups. […]
Cell viability was analyzed using a previously established protocol. Cancer cell viability was measured for GFP-Luciferase labelled cancer cells using ONE-Glo luciferase substrate that was prepared according to manufacturer's protocol (Promega). […] Where noted, longitudinal cell viability was also assessed using luminescence, though at the cost of signal strength. […] Some of the IC50 values were determined using cell viability data generated using an MTT assay (RealTime-Glo™ MT Cell Viability Assay, Promega) that were analyzed according to manufacturer's protocol.
In order to confirm linsitinib mechanism of action in ES cells, both RD-ES and SK-N-MC monolayers were treated with 12 μM linsitinib for 6 hours, lysed, measured for protein quantity using a Pierce™ BCA Protein Assay Kit (ThermoFisher), and loaded equally onto a Human Phospho-IGF1R ELISA (RayBiotech) to semi-quantitatively determine phosphorylated levels of the IGF-1 receptor, according to manufacturer's instructions. Osteocalcin (OCN), osteopontin (OPN), and lactic acid dehydrogenase (LDH) secreted levels were all measured using a similar approach. […]

The target of data set [2] is T1, IGF-1 receptor (Homo sapiens, UniProt P08069).
T1 construct: endogenous in cells; host or cells: RD-ES (ATCC HTB-166) and SK-N-MC (ATCC HTB-10) Ewing sarcoma cell lines
In words: Phospho-IGF1R ELISA in ES cell monolayers. The conditions noted are these: 12 μM for 6 hours. The format is cell-based.

For data set [3] the following is noted: cited from earlier work.
Data set [4] has as its system non-metastatic and metastatic GFP-luciferase ES cell lines (RD-ES, SK-N-MC). As to the kind of experiment: Luminescence viability of GFP-luciferase ES cell monolayers. Format: cell-based, human. The following applies: 12 μM over 72 hours; both the non-metastatic and metastatic cell lines. The method, then:
(§2) MTT viability assay was used to determine drug toxicity, with luminescence generated by viable cells measured at the endpoint (10^4 cells per well, mean±s.e.m., n=3). […] In order to determine cancer cell viability, cells were lysed and treated with luciferin using a Bright-Glo™ assay, with subsequent luminescence measured (10^4 cells per well, mean±s.e.m., n=3).
(§3) Cell viability was analyzed using a previously established protocol. Cancer cell viability was measured for GFP-Luciferase labelled cancer cells using ONE-Glo luciferase substrate that was prepared according to manufacturer's protocol (Promega). Samples were collected following 3, 7, and 21 days cycles of linsitinib treatment. Where noted, longitudinal cell viability was also assessed using luminescence, though at the cost of signal strength. Briefly, in vivo grade VivoGlo™ Luciferin (Promega) was made at a 200× stock concentration (30 mg/ml) in water, added to sample culture media at a 1:200 dilution, and scanned using a spectrophotometer (Biotek). Some of the IC50 values were determined using cell viability data generated using an MTT assay (RealTime-Glo™ MT Cell Viability Assay, Promega) that were analyzed according to manufacturer's protocol.

Data set [5] deals with non-metastatic and metastatic ES cell lines (RD-ES, SK-N-MC). In words: MTT viability assay in ES cell monolayers. The following applies: 0-100 μM over 72 hours. The format is cell-based, human. The method, then: as §2, §3
Data set [6] deals with engineered cardiac tissues. In words: Cardiac tissue in the integrated platform with microfluidic perfusion, linsitinib. The format is cell-based, human. The conditions noted are these: after linsitinib exposure. As to the method:
as §1
Human iPS cell-derived cardiomyocytes at day 13 of differentiation were combined with normal human dermal fibroblasts (NHDF; Lonza) at a ratio of 75% human iPS-derived cardiomyocytes and 25% NHDF, for a total of 1 million cells per tissue. The hydrogel was formed by mixing 33 mg/mL of human fibrinogen (Sigma-Aldrich) with 25 U/mL of human thrombin (Sigma-Aldrich), at an 84:16 ratio. […]
To measure the cardiac contractility online, we took contractility videos of the tissues that were analyzed using the native MATLAB code we previously developed. Tissue contractility was measured by tracking the change in tissue area as a function of time. […] Absolute differences in cell area from the baseline frame were then calculated to create a time course of cell area changes over time. The resulting time courses were analyzed using a native MATLAB (MATHWorks) automated peak finding algorithm to determine locations of maximum cell contractions in the time profiles. Beat period lengths were determined from the length of time between the pairs of local maxima, and the beat frequencies were determined by inverting beat periods. […]

T1 sequence (P08069 31-1367): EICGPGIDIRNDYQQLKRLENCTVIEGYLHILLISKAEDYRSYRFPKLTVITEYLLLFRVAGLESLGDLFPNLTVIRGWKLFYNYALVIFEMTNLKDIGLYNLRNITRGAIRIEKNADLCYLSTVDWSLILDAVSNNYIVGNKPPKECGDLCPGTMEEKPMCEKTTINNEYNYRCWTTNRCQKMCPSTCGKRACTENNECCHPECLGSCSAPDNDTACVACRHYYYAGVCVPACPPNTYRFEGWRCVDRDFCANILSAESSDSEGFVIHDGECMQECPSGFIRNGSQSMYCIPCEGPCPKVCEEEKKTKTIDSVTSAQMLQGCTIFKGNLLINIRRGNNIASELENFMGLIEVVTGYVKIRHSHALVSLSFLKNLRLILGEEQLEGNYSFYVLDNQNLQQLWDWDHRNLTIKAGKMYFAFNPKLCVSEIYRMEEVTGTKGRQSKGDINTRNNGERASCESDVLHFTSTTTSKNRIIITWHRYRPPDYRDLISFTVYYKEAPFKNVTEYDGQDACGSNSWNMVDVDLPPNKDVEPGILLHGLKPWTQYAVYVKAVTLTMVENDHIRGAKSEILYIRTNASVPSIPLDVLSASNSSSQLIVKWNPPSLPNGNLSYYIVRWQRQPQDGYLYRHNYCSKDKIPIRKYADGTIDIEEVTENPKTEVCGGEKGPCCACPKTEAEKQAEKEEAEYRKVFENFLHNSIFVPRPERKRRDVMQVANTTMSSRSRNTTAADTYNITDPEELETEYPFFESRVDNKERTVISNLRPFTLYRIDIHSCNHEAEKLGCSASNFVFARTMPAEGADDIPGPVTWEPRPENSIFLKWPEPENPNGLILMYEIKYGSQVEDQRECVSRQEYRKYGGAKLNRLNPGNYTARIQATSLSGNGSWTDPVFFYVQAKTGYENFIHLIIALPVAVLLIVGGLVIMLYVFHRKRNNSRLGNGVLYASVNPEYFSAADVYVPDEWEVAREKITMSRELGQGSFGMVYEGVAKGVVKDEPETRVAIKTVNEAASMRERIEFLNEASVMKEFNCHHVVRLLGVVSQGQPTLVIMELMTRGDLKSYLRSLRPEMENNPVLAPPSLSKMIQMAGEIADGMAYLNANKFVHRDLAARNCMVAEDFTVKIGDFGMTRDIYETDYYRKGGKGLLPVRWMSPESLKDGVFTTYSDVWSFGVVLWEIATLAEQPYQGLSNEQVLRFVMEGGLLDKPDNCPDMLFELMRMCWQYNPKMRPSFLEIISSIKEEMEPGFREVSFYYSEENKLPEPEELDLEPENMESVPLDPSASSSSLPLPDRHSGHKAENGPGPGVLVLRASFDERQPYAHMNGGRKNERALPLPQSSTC

`C[C@]1(O)C[C@@H](c2nc(-c3ccc4ccc(-c5ccccc5)nc4c3)c3c(N)nccn32)C1` [linsitinib]: the “response to the drug (luminescence)” value in data set [1] (3 days, directly into the tissue chamber (immediate exposure)) is “fast response”. The “drug response (luminescence)” value in data set [1] (3 days, perfused integrated platform) is given as “insignificant drug response”. Besides, in data set [1] (72 hours, perfused integrated platform), the “secretion of LDH, vehicle vs linsitinib treated” value is “no significant difference”. Further, the “levels of phosphorylated IGF-1R” value in data set [2] is “significant decreases”. Further, in data set [3], the half-life entry is “approximately 5 hours”. Further, the “drug efficacy (luminescence viability)” value in data set [4] was “significant drug efficacy”. The “IC50 (MTT viability assay)” value in data set [5] was “two orders of magnitude lower than the effective plasma concentration observed in patients”. Besides, the “inotropic response to subsequent isoproterenol” value in data set [6] is listed as “expected inotropic response”.
